In patent publication US20150368248A1, “2-SUBSTITUTED-6-BIARYLMETHYLAMINO-9-CYCLOPENTYL-9H-PURINE DERIVATIVES, USE THEREOF AS MEDICAMENTS, AND PHARMACEUTICAL COMPOSITIONS” (UNIVERZITA PALACKEHO V OLOMOUCI, priority 2013, published 2015):

How the values were obtained:
HepG2 and PLC cells = assay: Clonogenic survival assay; type: cell-based, human; conditions: 0.2 μM
Procedure: To analyze the clonogenic growth behavior of cell populations on tissue culture plastic, 500 cells were seeded in a 6-well plate and, either untreated or pretreated with BA-12 or BP-14 for 24 hours, incubated with standard medium for 10 days at 37° C. and 5% CO2. Colonies were fixed with methanol/acetic acid (3:1) and stained with 0.25% crystal violet. The crystal violet of fixed cells was solubilized with 1% SDS and the absorbance was photometrically determined at 560 nm.

[1] = test system: HepG2- and PLC-derived tumors; assay: Xenografted tumor formation and drug intervention; type: in vivo
Procedure: (§1) BrdU incorporation into cell nuclei directly indicates cell proliferation. Cultured cells were grown in medium containing 10 μM 5-bromo-2′-deoxy-uridine (BrdU) for 1 hour. After removing labeling medium, cells were fixed and DNA denatured with a fixing/denaturing solution containing 2 M HCl for 30 minutes at 37° C. To analyze BrdU incorporation in vivo, 200 μl Ringer solution containing 1 mg BrdU was intraperitoneally injected into xenografted mice 2 hours prior to analysis. Mice were sacrificed and tumor tissue was fixed in 4% formaldehyde and processed for immunohistochemistry. The incorporation of BrdU into cellular DNA was detected using a monoclonal anti-BrdU antibody (Sigma, St. Louis, USA) followed by incubation with a peroxidase-conjugated secondary antibodies (Calbiochem, LaJolla, USA) at dilutions of 1:10,000.
(§2) 5×10^6 human hepatoma cells were re-suspended in 100 μl Ringer solution and subcutaneously injected into severe combined immunodeficient (SCID) mice (Harlan Laboratories, San Pietro, Italy). Tumor volume was determined as described (36). Pharmacological intervention was performed in tumor-bearing mice for 17 days by daily intraperitoneal injection of either 5 mg/kg BA-12 or 1 mg/kg BP-14 in 100 μl of 0.01% DMSO. Control tumor-bearing mice were daily intraperitoneally injected with 100 μl of 0.01% DMSO only. All animal experiments were performed according to the Austrian guidelines for animal care and protection.
(§3) Mice were sacrificed and tumors were fixed as described (37). 4 μm thick, paraffin-embedded sections were stained with hematoxylin and eosin (H&E). For immunohistochemistry, sections were stained with anti-BrdU (Sigma, St. Louis, USA), 1:200. Biotinylated secondary antibodies were used at 1:200. The immunoperoxidase procedure was performed using a Vectastain Elite ABC kit (Vector Laboratories, CA, USA) as described by the manufacturer.

[2] = Xenografted tumor formation and drug intervention; type: in vivo; conditions: SCID, mouse, in vivo, ip; mice, intraperitoneal; read-out: maximum tolerated dose (MTD)
Procedure: as §1, §2, §3

HepG2 = assay: MTT cell viability assay (Example 40); type: cell-based; conditions: Homo sapiens, 72 hours
Procedure: (§4) The human hepatoma cell lines and HepG2, PLC/PRF/5 (PLC), Hep3B and 3sp (formerly described as HCC-1.1) were cultivated in RPMI 1640 and 10% fetal calf serum (FCS) as described (31, 32). All cells were kept at 37° C. and 5% CO2 and were routinely screened for the absence of mycoplasma.
(§5) Cell viability was determined using the 3-(4,5 dimethylthiazol-2-yl)-2,5-diphenyltetrazolium bromide (MTT) assay. Briefly, cells were seeded in triplicates at a density of 6×10^3 cells per well. After 24 hours, cells were incubated with drug-containing medium for 72 hours. Cells were incubated with MTT solution (5 mg/ml; Sigma, St. Louis, USA) and medium was replaced with DMSO after five hours. The absorbance was measured at 620 nm by employing a microplate reader (Asys HiTech, Salzburg, Austria). MTT assays were repeated 3 times for each drug application and untreated cells were used as reference. IC50 values were obtained by log-linear interpolation of data points and are depicted by dose-response curves using the software GraphPad Prism® 5.01.

Hep3B = assay: MTT cell viability assay (Example 40); type: cell-based; conditions: Homo sapiens, 72 hours
Procedure: as §4, §5

PLC/PRF/5 (PLC) = assay: MTT cell viability assay (Example 40); type: cell-based; conditions: Homo sapiens, 72 hours
Procedure: as §4, §5

[3] = test system: 3sp (formerly described as HCC-1.1); assay: MTT cell viability assay (Example 40); type: cell-based; conditions: Homo sapiens, 72 hours
Procedure: as §4, §5

[4] = test system: RNA polymerase II phosphorylation at serines 2 and 5; assay: Immunoblot of RNA polymerase II phosphorylation (CDK7/CDK9 substrate); type: cell-based, human
Procedure: We monitored levels of phosphorylation of RNA polymerase II, which is a substrate of CDK7 and CDK9, in cells treated with compound BP14 (FIG. 3). Immunoblotting analysis was performed as described in Example 33 with using appropriate antibodies for anti-phospho RNA polymerase II (S5) (Bethyl Laboratories, USA), anti-phospho RNA polymerase II (S2) (Bethyl Laboratories, USA), anti-RNA polymerase II (clone ARNA-3, Millipore) and β-actin (clone C4, Santa Cruz Biotechnology, USA).
Immunoblotting was performed as described previously (36). The primary antibodies were used at the dilutions: anti-phospho-Ser5 RNA Pol II (CDK7; Bethyl Laboratories, Montgomery, USA), 1:1,000; anti-phospho-Ser2 RNA Pol II (CDK9; Bethyl Laboratories, Montgomery, USA), 1:1,000; anti-RNA Pol II (Santa Cruz Biotechnology, Santa Cruz, USA), 1:1,000; anti-PARP (Cell Signaling Technology, Beverly, USA), 1:1,000; anti-β-actin (Sigma, St. Louis, USA), 1:2.500. Horseradish peroxidase-conjugated secondary antibodies (Calbiochem, LaJolla, USA) were used at dilutions of 1:10,000.

[5] = test system: HepG2, PLC and Hep3B cells; assay: Analysis of proliferation (cell counter); type: cell-based, human; conditions: 0.2 μM
Procedure: 6×10^4 cells were seeded on 12-well plates and incubated with inhibitors at different concentrations for 3 days. Cell numbers were determined at various time points after trypsinization using a cell counter (CASY, Scharfe Systems, Reutlingen, Germany). Three independent experiments were performed in triplicates.

HepG2 or PLC cells = assay: BrdU incorporation in cultured cells; type: cell-based, human; conditions: 1 μM, 24 hours
Procedure: as §1

In the case of `NC1CCC(Nc2nc(NCc3ccc(-c4ccco4)nc3)c3ncn(C4CCCC4)c3n2)CC1` (stereo not shown) [BP14, N^2-(4-amino-cyclohexyl)-9-cyclopentyl-N^6-(6-furan-2-yl-pyridin-3-ylmethyl)-9H-purine-2,6-diamine], the “reduction of clonogenic growth behavior” value (HepG2 and PLC cells) is reported as “more than 15 fold”, the “decrease of S-phase-positive cells by BrdU incorporation in tumors” value ([1]; HepG2- and PLC-derived tumors) is reported as 2 fold and the “tumor volumes of xenografts” value ([1]; HepG2 and PLC xenografts, 1 mg/kg daily i.p., 17 days) is reported as “strongly reduced tumor volumes”. For the same compound, the PLC tumors ([1]; PLC xenograft, 1 mg/kg daily i.p., 17 days) was “regression of PLC tumors”, the MTD at 17 days [2] was 1 mg/kg and the IC50 (HepG2) was 0.12 µM. The IC50 (Hep3B) was 0.08 µM, the IC50 (PLC/PRF/5 (PLC)) was 0.02 µM and the IC50 [3] was 0.48 µM. The “RNA polymerase II phosphorylation on serine 5 (CDK7) and serine 2 (CDK9)” value ([4]; HepG2 and PLC cells, below 1 μM, 24 hours) was “strong reduction of RNA polymerase II phosphorylation”, the “phosphorylation at serines 2 and 5 of RNA polymerase II” value ([4]; mainly AKH3sp and Hep3B cell lines, 24 h) was “rapid decrease in phosphorylation at serines 2 and 5 of RNA polymerase II” and the proliferation kinetics [5] was “cytostatic effect”. The “decrease of BrdU incorporation as compared to control” value (HepG2 or PLC cells) was “more than 2 fold”.
